From patent publication US20170007615A1, “Antibacterial Compounds” (priority 2014, published 2017)
Read-outs that look alike come from different tables or passages of the source.

How the values were obtained:
[1] = tested on: F. philomiragia (ATCC 25015); experiment: microbe, parasite or virus in culture; details: Francisella philomiragia, ATCC25015, read-out: MIC Compound alone
[2] = tested on: P. aeruginosa (ATCC 27853); experiment: microbe, parasite or virus in culture; details: Pseudomonas aeruginosa, ATCC27853, read-out: MIC Compound alone
[3] = tested on: B. cepacia (ATCC 25416); experiment: Antibacterial activity (MIC), alone and with colistin; format: cell-based, Burkholderia cepacia
[4] = tested on: E. cloaceae (ATCC 13047)
[5] = tested on: F. philomiragia (ATCC 25015); details: Table 9
[6] = tested on: P. aeruginosa (ATCC 27853); details: Table 5
[7] = tested on: E. cloaceae drug resistant clinical isolates; experiment: Antibacterial activity (MIC) against drug resistant clinical isolates, alone and with PMBN; format: cell-based; details: for MIC: read-out: MIC Compound alone
[8] = tested on: K. pneumonia colistin-resistant strains; experiment: microbe, parasite or virus in culture; format: cell-based; details: for MIC: Klebsiella pneumoniae
[9] = tested on: E. coli drug resistant clinical isolates; experiment: Antibacterial activity (MIC) against drug resistant clinical isolates, alone and with PMBN; format: cell-based; details: for MIC: Escherichia coli, read-out: MIC Compound alone
[10] = tested on: E. coli colistin-resistant strains; experiment: microbe, parasite or virus in culture; format: cell-based; details: for MIC: Escherichia coli
[11] = tested on: A. baumannii drug resistant clinical isolates; experiment: Antibacterial activity (MIC) against drug resistant clinical isolates, alone and with PMBN; format: cell-based; details: for MIC: Acinetobacter baumannii, read-out: MIC Compound alone
[12] = tested on: P. aeruginosa (MMX 1497) colistin-resistant strain; experiment: Antibacterial activity (MIC) against colistin-resistant strains, alone and with colistin; format: cell-based
[13] = tested on: E. cloaceae (ATCC 13047); experiment: microbe, parasite or virus in culture; details: Enterobacter cloacae, ATCC13047, read-out: MIC Compound alone
[14] = tested on: A. baumannii (ATCC 19606); details: Table 4
[15] = tested on: A. baumannii (ATCC 19606); experiment: microbe, parasite or virus in culture; details: Acinetobacter baumannii, ATCC19606, read-out: MIC Compound alone
[16] = tested on: E. coli (ATCC 25922); experiment: microbe, parasite or virus in culture; details: Escherichia coli
[17] = tested on: P. aeruginosa drug resistant clinical isolates; experiment: Antibacterial activity (MIC) against drug resistant clinical isolates, alone and with PMBN; format: cell-based; details: for MIC: Pseudomonas aeruginosa, read-out: MIC Compound alone
[18] = tested on: A. baumannii colistin-resistant strains; experiment: microbe, parasite or virus in culture; format: cell-based; details: for MIC: Acinetobacter baumannii
[19] = tested on: E. coli (ATCC 25922)

CCNC(=O)Nc1nc2cc(-c3cnc([C@H](C)O)nc3)cc(-c3ccccn3)c2s1 [Example 23 (WO2013/138860), 1-ethyl-3-[5-[2-[(1S)-1-hydroxyethyl]pyrimidin-5-yl]-7-(2-pyridyl)-1,3-benzothiazol-2-yl]urea]
0.5 µg/mL: MIC of Compound (μg/ml) in the presence of PMBN (128 μg/ml) ([4]; Table 6) | MIC of Compound (μg/ml) in the presence of PMBN (128 μg/ml) ([7]; E. cloaceae (MMX 6093)) | MIC of Compound (μg/ml) in the presence of PMBN (128 μg/ml) ([11]; A. baumannii (MMX 4454))
> 64 µg/mL: MIC [2] | MIC ([3]; Burkholderia cepacia, ATCC25416, read-out: MIC Compound alone) | MIC ([7]; E. cloaceae (MMX 6087)) | MIC ([7]; E. cloaceae (MMX 6095)) | MIC ([9]; E. coli (MMX 1312)) | MIC ([9]; E. coli (MMX 2232)) | MIC ([11]; A. baumannii (MMX 6331)) | MIC ([12]; Pseudomonas aeruginosa, read-out: MIC Compound alone) | MIC [13] | MIC ([17]; NCTC13437, P. aeruginosa (NCTC13437)) | MIC ([17]; P. aeruginosa (MMX3007)) | MIC ([17]; P. aeruginosa (MMX3022)) | MIC ([17]; P. aeruginosa (MMX3025))
0.03 µg/mL: MIC of Compound (μg/ml) in the presence of colistin (2 μg/ml) ([18]; A. baumannii colistin-resistant strain #2)
0.12 µg/mL: MIC of Compound (μg/ml) in the presence of colistin (2 μg/ml) ([8]; K. pneumonia colistin-resistant strain #3) | MIC of Compound (μg/ml) in the presence of PMBN (128 μg/ml) ([17]; P. aeruginosa (MMX3025)) | MIC of Compound (μg/ml) in the presence of PMBN (32 μg/ml) ([19]; Table 12, (b) No significant effect)
≦0.008 μg/ml: MIC of Compound (μg/ml) in the presence of PMBN (128 μg/ml) ([9]; E. coli (MMX 1312)) | MIC of Compound (μg/ml) in the presence of PMBN (128 μg/ml) ([9]; E. coli (MMX 2232))
> 16 µg/mL: MIC [1] | MIC ([7]; E. cloaceae (MMX 6093)) | MIC ([7]; E. cloaceae (MMX 6304))
4 µg/mL: MIC ([10]; read-out: MIC Compound alone, E. coli colistin-resistant strain #1) | MIC ([10]; read-out: MIC Compound alone, E. coli colistin-resistant strain #2) | MIC ([10]; read-out: MIC Compound alone, E. coli colistin-resistant strain #43) | MIC of Compound (μg/ml) in the presence of colistin (2 μg/ml) [12] | MIC [15] | MIC ([16]; ATCC25922, read-out: MIC Compound alone, Table 1) | MIC ([16]; ATCC25922, read-out: MIC Compound alone, Table 2) | MIC ([16]; ATCC25922, read-out: MIC Compound alone, Table 3) | MIC ([18]; read-out: MIC Compound alone, A. baumannii colistin-resistant strain #2)
<=0.12 μg/ml: MIC of Compound (μg/ml) in the presence of colistin (2 μg/ml) ([4]; Table 7, colistin non-inhibitory)
0.25 µg/mL: MIC of Compound (μg/ml) in the presence of colistin (2 μg/ml) ([8]; K. pneumonia colistin-resistant strain #1) | MIC of Compound (μg/ml) in the presence of colistin (2 μg/ml) ([8]; K. pneumonia colistin-resistant strain #2) | MIC of Compound (μg/ml) in the presence of PMBN (128 μg/ml) ([11]; A. baumannii (MMX 6331)) | MIC of Compound (μg/ml) in the presence of PMBN (128 μg/ml) [14] | MIC of Compound (μg/ml) in the presence of PMBN (128 μg/ml) ([17]; P. aeruginosa (MMX3007)) | MIC of Compound (μg/ml) in the presence of PMBN (128 μg/ml) ([17]; P. aeruginosa (MMX3022)) | MIC of Compound (μg/ml) in the presence of PMBN (128 μg/ml) ([17]; P. aeruginosa (NCTC13437))
>64 µg/mL: MIC Compound alone ([4]; Table 7)
2 µg/mL: MIC of Compound (μg/ml) in the presence of PMBN (32 μg/ml) [5] | MIC of Compound (μg/ml) in the presence of PMBN (128 μg/ml) ([7]; E. cloaceae (MMX 6087)) | MIC ([8]; read-out: MIC Compound alone, K. pneumonia colistin-resistant strain #3) | MIC of Compound (μg/ml) in the presence of colistin (2 μg/ml) ([10]; E. coli colistin-resistant strain #1) | MIC ([11]; A. baumannii (MMX 4454))
0.06 µg/mL: MIC of Compound (μg/ml) in the presence of PMBN (128 μg/ml) ([19]; Table 1, (b) No effect)
≤ 0.03 µg/mL: MIC ([18]; read-out: MIC Compound alone, A. baumannii colistin-resistant strain #1) | MIC ([18]; read-out: MIC Compound alone, A. baumannii colistin-resistant strain #3)
<=0.008 μg/ml: MIC of Compound (μg/ml) in the presence of PMBN (128 μg/ml) [6] | MIC of Compound (μg/ml) in the presence of colistin (2 μg/ml) ([18]; A. baumannii colistin-resistant strain #3)
> 2 µg/mL: MIC ([16]; ATCC25922, read-out: MIC Compound alone, Table 12)
1 µg/mL: MIC of Compound (μg/ml) in the presence of PMBN (128 μg/ml) ([7]; E. cloaceae (MMX 6304)) | MIC ([8]; read-out: MIC Compound alone, K. pneumonia colistin-resistant strain #1) | MIC ([8]; read-out: MIC Compound alone, K. pneumonia colistin-resistant strain #2) | MIC of Compound (μg/ml) in the presence of colistin (2 μg/ml) ([10]; E. coli colistin-resistant strain #2) | MIC of Compound (μg/ml) in the presence of colistin (2 μg/ml) ([10]; E. coli colistin-resistant strain #3) | MIC of Compound (μg/ml) in the presence of colistin (2 μg/ml) ([10]; E. coli colistin-resistant strain #26) | MIC of Compound (μg/ml) in the presence of colistin (2 μg/ml) ([10]; E. coli colistin-resistant strain #43) | MIC of Compound (μg/ml) in the presence of Colistin (1 μg/ml) ([19]; Table 2, colistin sub-inhibitory) | MIC of Compound (μg/ml) in the presence of PMB (0.5 μg/ml) ([19]; Table 3, PMB sub-inhibitory)
8 µg/mL: MIC of Compound (μg/ml) in the presence of colistin (2 μg/ml) ([3]; Table 8, colistin non-inhibitory) | MIC of Compound (μg/ml) in the presence of PMBN (128 μg/ml) ([7]; E. cloaceae (MMX 6095)) | MIC ([10]; read-out: MIC Compound alone, E. coli colistin-resistant strain #3) | MIC ([10]; read-out: MIC Compound alone, E. coli colistin-resistant strain #26)
0.015 µg/mL: MIC of Compound (μg/ml) in the presence of colistin (2 μg/ml) ([18]; A. baumannii colistin-resistant strain #1)
